In PubChem BioAssay (NCI):
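Assay format: 96-well plates, 48-hour exposure. TGI is the concentration that stops growth completely.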

Tests used:
Assay in all cases: inhibition of tumour cell growth, NCI panel, 48 h
[1] = tested on: NCI-H522 lung
[2] = tested on: UO-31 renal
[3] = tested on: COLO 205 colon
[4] = tested on: ACHN renal
[5] = tested on: OVCAR-5 ovarian
[6] = tested on: HCT-116 colon
[7] = tested on: HCC-2998 colon
[8] = tested on: RPMI-8226 leukemia
[9] = tested on: 786-0 renal
[10] = tested on: SN12C renal
[11] = tested on: NCI-H226 lung
[12] = tested on: MALME-3M melanoma
[13] = tested on: EKVX NSCLC
[14] = tested on: OVCAR-3 ovarian
[15] = tested on: HOP-18 NSCLC
[16] = tested on: NCI-H460 lung
[17] = tested on: M14 melanoma
[18] = tested on: SNB-75 CNS
[19] = tested on: A498 renal
[20] = tested on: SK-MEL-2 melanoma
[21] = tested on: HOP-92 NSCLC
[22] = tested on: SK-MEL-5 melanoma
[23] = tested on: TK-10 renal
[24] = tested on: NCI-H23 lung
[25] = tested on: HCT-15 colon
[26] = tested on: OVCAR-4 ovarian
[27] = tested on: U251 CNS
[28] = tested on: DMS 114 small cell lung
[29] = tested on: SK-MEL-28 melanoma
[30] = tested on: HOP-62 NSCLC
[31] = tested on: LXFL 529 NSCLC
[32] = tested on: SF-268 CNS
[33] = tested on: LOX IMVI melanoma
[34] = tested on: KM20L2 colon
[35] = tested on: IGROV1 ovarian
[36] = tested on: HT29 colon
[37] = tested on: SF-295 CNS
[38] = tested on: UACC-62 melanoma
[39] = tested on: RXF 393 renal
[40] = tested on: DMS 273 small cell lung
[41] = tested on: SNB-78 CNS
[42] = tested on: SF-539 CNS
[43] = tested on: SNB-19 CNS
[44] = tested on: KM12 colon
[45] = tested on: SW-620 colon
[46] = tested on: SK-OV-3 ovarian
[47] = tested on: OVCAR-8 ovarian
[48] = tested on: K-562 leukemia
[49] = tested on: CAKI-1 renal
[50] = tested on: UACC-257 melanoma
[51] = tested on: HS 578T breast
[52] = tested on: PC-3 prostate
[53] = tested on: T-47D breast
[54] = tested on: MCF7 breast
[55] = tested on: HL-60(TB) leukemia
[56] = tested on: NCI/ADR-RES ovarian
[57] = tested on: MOLT-4 leukemia
[58] = tested on: MDA-MB-231 breast
[59] = tested on: SR leukemia
[60] = tested on: DU-145 prostate
[61] = tested on: MDA-MB-435
[62] = tested on: BT-549 breast
[63] = tested on: CCRF-CEM leukemia
[64] = tested on: MDA-N
[65] = tested on: A549 NSCLC

## COc1ccc(NC(=O)C2C(=O)N(c3ccc(OC)cc3)C(=O)/C2=N\NC(N)=O)cc1 (configuration not stated)
[1]
  TGI: > 100 µM
[2]
  TGI: 80.8 µM
[3]
  TGI: > 100 µM
[4]
  TGI: 82.5 µM
[5]
  TGI: > 100 µM
[6]
  TGI: 46.8 µM
[7]
  TGI: > 100 µM
[8]
  TGI: > 100 µM
[9]
  TGI: 49.3 µM
[10]
  TGI: > 100 µM
[11]
  TGI: 51.7 µM
[12]
  TGI: 68.5 µM
[13]
  TGI: > 100 µM
[14]
  TGI: > 100 µM
[15]
  TGI: 70.7 µM
[16]
  TGI: > 100 µM
[17]
  TGI: > 100 µM
[18]
  TGI: 49.3 µM
[19]
  TGI: 45 µM
[20]
  TGI: > 100 µM
[21]
  TGI: 84.9 µM
[22]
  TGI: 37.7 µM
[23]
  TGI: 70.9 µM
[24]
  TGI: > 100 µM
[25]
  TGI: > 100 µM
[26]
  TGI: 94.3 µM
[27]
  TGI: 35.4 µM
[28]
  TGI: > 100 µM
[29]
  TGI: > 100 µM
[30]
  TGI: 32.9 µM
[31]
  TGI: > 100 µM
[32]
  TGI: 63.9 µM
[33]
  TGI: > 100 µM
[34]
  TGI: > 100 µM
[35]
  TGI: 45 µM
[36]
  TGI: > 100 µM
[37]
  TGI: > 100 µM
[38]
  TGI: 46.7 µM
[39]
  TGI: 56.7 µM
[40]
  TGI: > 100 µM
[41]
  TGI: > 100 µM
[42]
  TGI: 30.8 µM
[43]
  TGI: > 100 µM
[44]
  TGI: 43.2 µM
[45]
  TGI: > 100 µM
[46]
  TGI: 49 µM
[47]
  TGI: 34.6 µM
[48]
  TGI: > 100 µM
[49]
  TGI: > 100 µM
[50]
  TGI: > 100 µM

## COc1cc(-c2cc(=O)c3c(O)c(OC)c(OC)c(OC)c3o2)cc(OC)c1OC
[51]
  TGI: > 20.7 µM
[1]
  TGI: 98.6 µM
[2]
  TGI: > 100 µM
[52]
  TGI: > 100 µM
[53]
  TGI: > 74.3 µM
[3]
  TGI: > 100 µM
[54]
  TGI: > 100 µM
[4]
  TGI: > 100 µM
[5]
  TGI: > 100 µM
[55]
  TGI: > 100 µM
[6]
  TGI: > 44.9 µM
[7]
  TGI: > 100 µM
[8]
  TGI: > 100 µM
[9]
  TGI: 15.6 µM
[10]
  TGI: > 100 µM
[11]
  TGI: > 80.1 µM
[12]
  TGI: > 100 µM
[13]
  TGI: > 100 µM
[14]
  TGI: > 100 µM
[56]
  TGI: > 100 µM
[16]
  TGI: > 100 µM
[17]
  TGI: > 100 µM
[57]
  TGI: > 100 µM
[18]
  TGI: 6.2 µM
[58]
  TGI: 38.5 µM
[19]
  TGI: 9.14 µM
[20]
  TGI: > 100 µM
[21]
  TGI: 27.3 µM
[22]
  TGI: > 100 µM
[23]
  TGI: > 57.6 µM
[59]
  TGI: > 100 µM
[24]
  TGI: > 62.5 µM
[25]
  TGI: > 100 µM
[26]
  TGI: > 100 µM
[27]
  TGI: > 22.2 µM
[60]
  TGI: > 100 µM
[61]
  TGI: > 100 µM
[29]
  TGI: > 100 µM
[30]
  TGI: 16.9 µM
[62]
  TGI: > 100 µM
[32]
  TGI: > 100 µM
[33]
  TGI: > 100 µM
[35]
  TGI: > 100 µM
[36]
  TGI: > 100 µM
[63]
  TGI: > 100 µM
[37]
  TGI: > 100 µM
[64]
  TGI: > 100 µM
[38]
  TGI: > 100 µM
[39]
  TGI: 33.2 µM
[65]
  TGI: > 100 µM
[42]
  TGI: > 54.9 µM
[43]
  TGI: > 78.7 µM
[44]
  TGI: > 100 µM
[46]
  TGI: 26 µM
[47]
  TGI: > 100 µM
[48]
  TGI: > 100 µM
[50]
  TGI: > 100 µM
